Laboratory results as given in PMC11145891, “Effect of 2-hydroxyethylammonium carboxylate protic ionic liquids on the solubility and cytotoxicity of indomethacin” (BMC Chemistry, 2024).
Read-outs that look alike come from different tables or passages of the source.

Columns and labels:
[1] = XRD of residual solids from solubility measurement; assay type: physicochemical; details: residual solids from saturated aqueous PIL solutions vs raw IMC
Excerpt: The XRD diffractograms of raw IMC crystals together with residuals crystals sampled from solubility measurement are depicted in Figure S4. (supporting information). It should be noted that quantitative analysis of phases in samples with preferential orientation or texture is not possible using traditional methods such as direct comparison. […] First, the stability of IMC in the presence of PILs was investigated. The analysis of the bottom phase(s) after the solubility experiments have been presented. There are different type of factors affecting the peak intensity of XRD. These type of factors are listed as: • The nature of the sample under test (single-phase or multiphase of the sample). • Powder samples have less peak intensity than bulk samples. (Due to the effect of absorption factor). • Grain size: the larger the grain size, the higher the peak intensity. For example, considering samples with the same chemical composition, which have been annealed at different times of heat treatment, a sample will have a higher peak intensity with a longer heat treatment time (longer annealing time = larger grain size). It should be noted that the smaller the grain size, the higher the […] is the amorphous part of the material, and as a result the background scatter in the diffraction pattern will increase and the peak intensity would decrease.

[2] = cited from earlier work
[3] = Apparent thermodynamic functions of IMC dissolution (van't Hoff and Gibbs equations); assay type: physicochemical
Excerpt: The van’t Hoff and Gibbs equations were employed for calculating the Thm = 305.55 K (the mean harmonic temperature), which was derived by considering into calculate temperatures (298.15 to 313.15 K). The thermodynamic parameters of dissolution have been evaluated by employing the apparent thermodynamic functions. […] On the other hand, the van’t Hoff plot, which is a plot of lnx1 versus 1/T-1/Thm , can be utilized to figure out:14 ΔHsoln∘=-R∂lnx1/∂1/T-1/ThmP, 15 ΔGsoln∘=-RThm×intercept.
In this manner, the values of ΔHsoln∘ and ΔGsoln∘ have been evaluated utilizing the slope and intercept of Eqs. 14 and 15. Furthermore, the following equation [47, 48] was applied to evaluate the standard molar entropy of dissolution, ΔSsoln∘ [49]:16 ΔSsoln∘=ΔHsoln∘-ΔGsoln∘/Thm.
Finally, in the IMC dissolution process, Eqs.

[4] = assay type: physicochemical
Protocol: Before obtaining dissolution data, a calibration curve for Indomethacin (IMC) was established (Fig. 2). A double-beam T80 UV-vis spectrometer (Japan) and a mixture of ethanol and distilled deionized water were employed to dissolve a specific amount of IMC to generate the calibration curve. Numerous methods were utilized to determine the experimental solubility data, encompassing the shake-flask method. […] Then, the excess amounts of IMC were added to glass vials holding a particular quantity of water and PILs, which were stirred and kept for 3 days in a water bath thermostat until equilibrium was reached. The temperature was adjusted with a precision of 0.01 K using an ED water bath thermostat (Julabo Co., Germany). After 3 days, the liquid and solid phases were separated employing a Hettich D-7200 centrifuge. At the next step, the liquid phase was appropriately diluted with an ethanol + water solution after filtering the saturated solutions through a 0.22 μm PTFE filter. The concentration of IMC in the solutions was measured by utilizing the calibration curve and a T80 UV-vis spectrometer (Japan). The mole fraction of IMC (x1) in the aqueous solutions containing PILs was determined, for the IMC + water, IMC + water combination, and IMC + PILs systems using the Eq. 1 [25, 26]:1 x1=[…]3, where Wi and Mi, respectively, indicate the weight fractions and molar mass weight fractions of each system component (i).

HT29 cell line [5] = assay: MTT assay cytotoxicity of PILs; details: for IC50: MTT, 24 h exposure
Protocol: (§1) Pastor Institute of Iran generously provided the human colon adenocarcinoma cell line HT29. The cell lines were cultured in RPMI’s medium supplemented with 10% fetal bovine serum (FBS) and Culture medium containing FBS. The cell cultures were incubated at 37 °C in a humidified environment of 5% carbon dioxide—CO2.
(§2) The colorimetric MTT assay was used to assess the cytotoxic activity of PILs (Twentyman and Luscombe 1987). HT29 cells were seeded in 96-well plates and allowed to conform for the first step. The cells were then incubated for 24 h at 37 °C in 5% CO2 in a total of six concentrations (3–150 µg mL^−1) of the studied compounds diluted in RPMI medium (previously sterilized with a 0.22 m syringe filter). After 24 h of exposure, each well was filled with 50 µL of MTT solution (3 (4,5-dimethylthiazol-2-yl)-2,5-diphenyltetrazolium bromide (MTT) from Sigma-Aldrich) (2 mg. mL in PBS, pH 7.2). To dissolve the formazan crystals, the medium was substituted with 150 µL of dimethyl sulfoxide (DMSO) after 4 h of incubation.
(§3) The plate was shaking for around 1 h while being held out of direct sunlight. Cell viability was measured through the optical density of reduced MTT at 570–630 nm using a microplate reader (Synergy HT from BioTeK Instruments Inc., Winooski, VT, USA). The percentage of viable cells was calculated as the ratio between the absorbance of treated and control cells. Similarly, IC50 was estimated using a non-linear regression, logistic equation to determine the chemical concentration that causes a 50% reduction in cell viability [27].

HT29 cell line [6] = test system: HT29 cell line
Protocol: as §1, §2, §3

[7] = aq. MEAA, w3 = 0.0000, Thm = 305.55 K
[8] = aq. MEAA, w3 = 0.0200, Thm = 305.55 K
[9] = aq. MEAA, w3 = 0.0500, Thm = 305.55 K
[10] = aq. MEAA, w3 = 0.0700, Thm = 305.55 K
[11] = aq. MEAA, w3 = 0.1000, Thm = 305.55 K
[12] = aq. MEAA, w3 = 0.1500, Thm = 305.55 K
[13] = aq. MEAA, w3 = 0.2000, Thm = 305.55 K
[14] = aq. MEAL, w3 = 0.0000, Thm = 305.55 K
[15] = aq. MEAL, w3 = 0.0200, Thm = 305.55 K
[16] = aq. MEAL, w3 = 0.0500, Thm = 305.55 K
[17] = aq. MEAL, w3 = 0.0700, Thm = 305.55 K
[18] = aq. MEAL, w3 = 0.1000, Thm = 305.55 K
[19] = aq. MEAL, w3 = 0.1500, Thm = 305.55 K
[20] = aq. MEAL, w3 = 0.2000, Thm = 305.55 K
[21] = aq. MEAP, w3 = 0.0000, Thm = 305.55 K
[22] = aq. MEAP, w3 = 0.0200, Thm = 305.55 K
[23] = aq. MEAP, w3 = 0.0500, Thm = 305.55 K
[24] = aq. MEAP, w3 = 0.0700, Thm = 305.55 K
[25] = aq. MEAP, w3 = 0.1000, Thm = 305.55 K
[26] = aq. MEAP, w3 = 0.1500, Thm = 305.55 K
[27] = aq. MEAP, w3 = 0.2000, Thm = 305.55 K

COc1ccc2c(c1)c(CC(=O)O)c(C)n2C(=O)c1ccc(Cl)cc1 [Indomethacin]
solid phase stability in solubility measurements (XRD) [1]: no phase transformation | solubility (mole fraction) ([2]; ethanol/water (wETOH = 0.2), 298.15 K, ref Peña et al.): 1.13 × 10^−5 mole fraction | solubility (mole fraction) ([2]; propylene glycol/water, 0.4 weight fraction propylene glycol, 303.15 K, ref Holguín et al. 52): 7.61 × 10^–6 mole fraction | ΔGsoln∘ [3, 7]: 34.58 kJ/mol | ΔHsoln∘ [3, 7]: 25.32 kJ/mol | ξH [3, 7]: 73.23% | ξTS [3, 7]: 26.77% | ΔGsoln∘ [3, 8]: 28.47 kJ/mol | ΔHsoln∘ [3, 8]: 18.18 kJ/mol | ξH [3, 8]: 63.86% | ξTS [3, 8]: 36.14% | ΔGsoln∘ [3, 9]: 27.91 kJ/mol | ΔHsoln∘ [3, 9]: 15.32 kJ/mol | ξH [3, 9]: 54.90% | ξTS [3, 9]: 45.10% | ΔGsoln∘ [3, 10]: 27.63 kJ/mol | ΔHsoln∘ [3, 10]: 8.90 kJ/mol | ξH [3, 10]: 32.21% | ξTS [3, 10]: 67.79% | ΔGsoln∘ [3, 11]: 27.45 kJ/mol | ΔHsoln∘ [3, 11]: 10.67 kJ/mol | ξH [3, 11]: 38.86% | ξTS [3, 11]: 61.14% | ΔGsoln∘ [3, 12]: 26.87 kJ/mol | ΔHsoln∘ [3, 12]: 19.13 kJ/mol | ξH [3, 12]: 71.17% | ξTS [3, 12]: 28.83% | ΔGsoln∘ [3, 13]: 26.17 kJ/mol | ΔHsoln∘ [3, 13]: 10.61 kJ/mol | ξH [3, 13]: 40.54% | ξTS [3, 13]: 59.46% | ΔGsoln∘ [3, 14]: 34.58 kJ/mol | ΔHsoln∘ [3, 14]: 25.32 kJ/mol | ξH [3, 14]: 73.23% | ξTS [3, 14]: 26.77% | ΔGsoln∘ [3, 15]: 25.22 kJ/mol | ΔHsoln∘ [3, 15]: 22.10 kJ/mol | ξH [3, 15]: 87.61% | ξTS [3, 15]: 12.39% | TMΔSsoln∘ [3, 16]: 2.50 kJ/mol | ΔGsoln∘ [3, 16]: 24.04 kJ/mol | ΔHsoln∘ [3, 16]: 26.54 kJ/mol | ξH [3, 16]: 91.39% | ξTS [3, 16]: 8.61% | TMΔSsoln∘ [3, 17]: 10.28 kJ/mol | ΔGsoln∘ [3, 17]: 23.57 kJ/mol | ΔHsoln∘ [3, 17]: 33.85 kJ/mol | ξH [3, 17]: 76.70% | ξTS [3, 17]: 23.30% | TMΔSsoln∘ [3, 18]: 3.81 kJ/mol | ΔGsoln∘ [3, 18]: 22.89 kJ/mol | ΔHsoln∘ [3, 18]: 26.70 kJ/mol | ξH [3, 18]: 87.50% | ξTS [3, 18]: 12.50% | TMΔSsoln∘ [3, 19]: 8.36 kJ/mol | ΔGsoln∘ [3, 19]: 21.79 kJ/mol | ΔHsoln∘ [3, 19]: 30.15 kJ/mol | ξH [3, 19]: 78.28% | ξTS [3, 19]: 21.72% | TMΔSsoln∘ [3, 20]: 2.57 kJ/mol | ΔGsoln∘ [3, 20]: 21.07 kJ/mol | ΔHsoln∘ [3, 20]: 23.65 kJ/mol | ξH [3, 20]: 90.18% | ξTS [3, 20]: 9.82% | ΔGsoln∘ [3, 21]: 34.58 kJ/mol | ΔHsoln∘ [3, 21]: 25.32 kJ/mol | ξH [3, 21]: 73.23% | ξTS [3, 21]: 26.77% | TMΔSsoln∘ [3, 22]: 3.14 kJ/mol | ΔGsoln∘ [3, 22]: 29.14 kJ/mol | ΔHsoln∘ [3, 22]: 32.28 kJ/mol | ξH [3, 22]: 91.14% | ξTS [3, 22]: 8.86% | TMΔSsoln∘ [3, 23]: 7.99 kJ/mol | ΔGsoln∘ [3, 23]: 28.20 kJ/mol | ΔHsoln∘ [3, 23]: 36.19 kJ/mol | ξH [3, 23]: 81.92% | ξTS [3, 23]: 18.08% | TMΔSsoln∘ [3, 24]: 31.30 kJ/mol | ΔGsoln∘ [3, 24]: 27.68 kJ/mol | ΔHsoln∘ [3, 24]: 58.98 kJ/mol | ξH [3, 24]: 65.33% | ξTS [3, 24]: 34.67% | TMΔSsoln∘ [3, 25]: 49.74 kJ/mol | ΔGsoln∘ [3, 25]: 27.01 kJ/mol | ΔHsoln∘ [3, 25]: 76.75 kJ/mol | ξH [3, 25]: 60.68% | ξTS [3, 25]: 39.32% | TMΔSsoln∘ [3, 26]: 58.61 kJ/mol | ΔGsoln∘ [3, 26]: 25.38 kJ/mol | ΔHsoln∘ [3, 26]: 83.99 kJ/mol | ξH [3, 26]: 58.90% | ξTS [3, 26]: 41.10% | TMΔSsoln∘ [3, 27]: 38.42 kJ/mol | ΔGsoln∘ [3, 27]: 24.21 kJ/mol | ΔHsoln∘ [3, 27]: 62.63 kJ/mol | ξH [3, 27]: 61.98% | ξTS [3, 27]: 38.02% | IMC solubility in MEAL PIL relative to water [4]: more than 200 times | increase of IMC solubility in PILs compared to pure water [4]: ~200 times | solubility (mole fraction) [4]: 20.71 × 10^−5 mole fraction

CC(=O)O.NCCO [MEAA, 2-Hydroxyethylammonium acetate]
IC50 (HT29 cell line [5]): 26.40 ± 0.006 mg/L | cytotoxic effect category (HT29 cell line [6]): moderate

CC(O)C(=O)O.NCCO (centres unmarked) [MEAL, 2-Hydroxyethylammonium lactate]
IC50 (HT29 cell line [5]): 79.23 ± 0.001 mg/L | cytotoxic effect category (HT29 cell line [6]): moderate

CCC(=O)O.NCCO [MEAP, 2-Hydroxyethylammonium propionate]
cytotoxic effect category (HT29 cell line [5]): moderate | IC50 (HT29 cell line [5]): 67.19 ± 0.049 mg/L
